How the values were obtained:
Format in all cases: cell-based, human
[1] = system: procollagen type 1 secretion in dermal Hs68 fibroblasts; assay: Analysis of procollagen type-1 content (PIP EIA)
Method: Samples obtained in Examples 1 or 2 were measured in regards to the effect of increasing procollagen type 1 in dermal Hs68 fibroblasts. In order to evaluate the effect of each sample in increasing secretion of procollagen type 1, the cells were seeded into a 24-well microplate at a density of 1.0×10^5 cells/well and stabilized for 24 hours. Next, the culture medium was exchanged to a new one supplemented with the sample, and the cells were incubated for 24 hours. For UV-B irradiation, the culture medium was removed, washed with PBS, and exposed to UV-B radiation at 15 mJ/cm^2. After an incubation of 48 hours in a culture medium supplemented with the sample, the resultant supernatant was measured in regards to the degree of secretion of procollagen type 1 by using a Procollagen type 1 C-peptide (PIP) EIA kit (Mk101, Takara, Japan).

[2] = system: hyaluronic acid secretion in dermal Hs68 fibroblasts; assay: Analysis of hyaluronic acid content (ELISA), dermal cells
Method: (§1) Samples obtained in Examples 1 and 2 were measured in regards to the effect of increasing hyaluronic acid in epidermal HaCaT keratinocytes and dermal Hs68 fibroblasts. In order to evaluate the effect of each sample in increasing hyaluronic acid, the cells were seeded into a 24-well microplate at a density of 1.0×10^5 cells/well and stabilized for 24 hours. Next, the culture medium was exchanged to a new one supplemented with the sample, and the cells were incubated for 24 hours. For UV-B irradiation, the culture medium was removed, washed with PBS, and exposed to UV-B radiation at 15 mJ/cm^2. After an incubation of 24 hours in a culture medium supplemented with the sample, the resultant supernatant was measured in regards to the degree of secretion of hyaluronic acid by using a TECOR Hyaluronic Acid PLUS ELISA kit (TE 1018-2, TECO Medical Group, US).

[3] = system: hyaluronic acid secretion in epidermal HaCaT keratinocytes; assay: Analysis of hyaluronic acid content (ELISA), epidermal cells
Method: as §1

[4] = system: MMP-1 secretion in epidermal HaCat keratinocytes; assay: Quantitative analysis of MMP-1 secretion (ELISA), epidermal cells; details: epidermal cells damaged by UV-B radiation of 15 mJ/cm2
Method: (§2) Samples obtained in Examples 1 and 2 were measured in regards to the inhibitory effect against the secretion of MMP-1 in epidermal HaCat keratinocytes and dermal Hs68 fibroblasts. In order to evaluate the effect of each sample in reducing MMP-1, the cells were seeded into a 24-well microplate at a density of 1.0×10^5 cells/well and stabilized for 24 hours. Next, the culture medium was exchanged to a new one supplemented with the sample, and the cells were incubated for 24 hours. For UV-B irradiation, the culture medium was removed, washed with PBS, and exposed to UV-B radiation at 15 mJ/cm^2. After an incubation of 48 hours in a culture medium supplemented with the sample, the resultant supernatant was measured in regards to the degree of secretion of MMP-1 by using an MMP-1 Human ELISA kit (ab100603, abcam, US).

[5] = system: HaCaT keratinocytes; assay: MTT assay of cell viability/proliferation after UV-B damage, epidermal cells
Method: (§3) Samples obtained in Examples 1 and 2 were measured in regards to the effect in recovering the skin damaged from UV-B exposure. In this experiment, HaCaT keratinocytes and HS68 fibroblasts were used as epidermal and dermal cells, respectively. In order to evaluate the possible efficacy of each sample in preventing or improving the UV-induced damage of skin cells, the cells were seeded into a 96-well microplate at a density of 1.0×10^4 cells/well and stabilized for 24 hours. Next, the culture medium was exchanged to a new one supplemented with the sample, and the cells were incubated for 24 hours. For UV-B irradiation, the culture medium was removed, washed with PBS, and exposed to UV-B radiation at 15 mJ/cm^2. After an incubation of 24 hours in a culture medium supplemented with the sample, the cells were subjected to an MTT assay to measure cell viability. The MTT assay measures the reduction of a tetrazolium component (MTT) into a formazan product by the mitochondria of viable cells. More specifically, 50 μl of a 5 mg/ml MTT solution was added to the cells, and after an incubation of 4 hours, the culture solution was completely removed and cells were dissolved in DMSO. The absorbance of the DMSO solution in the microplate was quantified by spectrophotometry at 540 nm.

[6] = system: HS68 fibroblasts; assay: MTT assay of cell viability/proliferation after UV-B damage, dermal cells
Method: as §3

[7] = system: MMP-1 secretion in dermal Hs68 fibroblasts; assay: Quantitative analysis of MMP-1 secretion (ELISA), dermal cells
Method: as §2

[8] = 1 μM hydrangenol, dermal cells, UV-B 15 mJ/cm2
[9] = dermal cells damaged by UV-B radiation of 15 mJ/cm2
[10] = 1 μM hydrangenol, epidermal cells, UV-B 15 mJ/cm2
[11] = epidermal cells damaged by UV-B radiation of 15 mJ/cm2

O=C1OC(c2ccc(O)cc2)Cc2cccc(O)c21 (stereo not drawn) [hydrangenol, 8-hydroxy-3-(4-hydroxyphenyl)-3,4-dihydroisochromen-1-one]
procollagen production effect compared with 10 μM EGCG [1, 8]: equivalent to 10 μM EGCG
production of procollagen [1, 9]: increased the production of procollagen
effect in producing hyaluronic acid [2, 8]: excellent effect in producing hyaluronic acid
production of hyaluronic acid [2, 9]: increased the production of hyaluronic acid
effect in producing hyaluronic acid [3, 10]: excellent effect in producing hyaluronic acid
production of hyaluronic acid [3, 11]: increased the production of hyaluronic acid
production of MMP-1 [4]: inhibited the production of MMP-1 in a concentration-dependent manner
cell proliferation effect compared with 10 μM EGCG [5, 10]: equivalent to 10 μM EGCG
cell proliferation [5, 11]: effective in promoting cell proliferation
cytotoxicity [5, 11]: non-cytotoxic
cell proliferation effect compared with 10 μM EGCG [6, 8]: equivalent to 10 μM EGCG
cell proliferation [6, 9]: effective in promoting cell proliferation
cytotoxicity [6, 9]: non-cytotoxic
production of MMP-1 [7, 9]: inhibited the production of MMP-1 in a concentration-dependent manner
inhibitory effect against the production of MMP-1 compared with EGCG ([7]; dermal cells, same concentration as EGCG): far superior to the EGCG

Reference: patent US12213960B2, “Method of preventing or improving UV-induced skin damage using hydroangenol as active ingredient” (COSMAXBIO CO., LTD., priority 2017, dated 2025)
